Test results from the NIST ThermoML archive (doi:10.1021/acs.jced.8b00196).
Numbers after ± are expanded uncertainties.

Key:
[1] = Molar enthalpy of transition or fusion; settings: Crystal; DSC
[2] = Crystal; DSC

O=C(c1ccccc1)c1ccccc1 [benzophenone]
Molar enthalpy of transition or fusion [1]: 4.21 ± 0.311 kcal/mol
Triple point temperature [2]: 323.4 ± 2.1 K
